In US12091395B2, “Griseofulvin compound” (Daiichi Sankyo Company, Limited, priority 2016, dated 2024):

Each molecule was assayed on TNF-α (assay: Determination of TNF-α inhibition rate (LPS-induced inflammation in mice, serum TNF-α)). Settings: Mus musculus, 1 h, oral 100 mg/kg in 0.5% methyl cellulose, LPS 0.4 mg/kg i.p. one hour later, serum TNF-α one hour after LPS.
Assay type: in vivo
Method: A test substance was suspended in a 0.5%. (w/v) methyl cellulose and orally administered to mice at a dose of 100 mg/kg. One hour later, a lipopolysaccharide (LPS, Sigma-Aldrich, L2630 (trade name)) (0.4 mg/kg) was intraperitoneally administered to induce inflammation. One hour after administration of LPS, blood was taken from the vena cava under anesthesia with isoflurane, placed in a tube containing a serum separating agent, allowed to stand still at room temperature for 20-30 minutes and centrifuged at 4° C. at 12,000 rpm for 5 minutes to obtain the serum. Thereafter, the amount of the TNF-α in the serum was measured by using Mouse TNF-α Elisa Kit (Invitrogen, KMC3011C (trade name)) or Mouse TNF-α Immunoassay Kit (PerkinElmer, AL505 (trade name)) in accordance with the protocol of the kit. The serum was diluted 10 times with the dilution solution contained in the kit and put in use.
TNF-α inhibition rate (%) of the test substance was calculated in accordance with the following expression. TNF-α inhibition rate (%)=[(TNF-α amount of control group)−(TNF-α amount of test substance administration group)]×100/(TNF-α amount of control group)

First: COC1=CC(=O)C[C@@H](C)[C@]12Oc1c(Cl)c(-c3nnc(C)o3)cc(OCCO)c1C2=O [Example 14, (2S,5′R)-7-Chloro-4-(2-hydroxyethoxy)-3′-methoxy-5′-methyl-6-(5-methyl-1,3,4-oxadiazol-2-yl)spiro[benzofuran-2,4′-cyclohex-2-ene]-1′,3-dione]
Second: COC1=CC(=O)C[C@@H](C)[C@]12Oc1c(Cl)c(-c3nnc(C)o3)cc(OC)c1C2=O [Example 5, (2S,5′R)-7-Chloro-3′,4-dimethoxy-5′-methyl-6-(5-methyl-1,3,4-oxadiazol-2-yl)spiro[benzofuran-2,4′-cyclohex-2-ene]-1′,3-dione]
The inhibition in vivo at 100 mg/kg of the first is lower: 24% for the first, 70% for the second.

Compared with CCOc1cc(-c2nnc(C(C)(C)O)o2)c(Cl)c2c1C(=O)[C@@]1(O2)C(OC)=CC(=O)C[C@H]1C [Example 11, (2S,5′R)-7-Chloro-4-ethoxy-6-[5-(1-hydroxy-1-methyl-ethyl)-1,3,4-oxadiazol-2-yl]-3′-methoxy-5′-methyl-spiro[benzofuran-2,4′-cyclohex-2-ene]-1′,3-dione], COC1=CC(=O)C[C@@H](C)[C@]12Oc1c(Cl)c(-c3nnc(C(C)(C)O)o3)cc(OC)c1C2=O [Example 8, (2S,5′R)-7-Chloro-6-[5-(1-hydroxy-1-methyl-ethyl)-1,3,4-oxadiazol-2-yl]-3′,4-dimethoxy-5′-methyl-spiro[benzofuran-2,4′-cyclohex-2-ene]-1′,3-dione] is lower in inhibition in vivo at 100 mg/kg: 61% for the first, 38% for the second.

Going from COC1=CC(=O)C[C@@H](C)[C@]12Oc1c(Cl)c(-c3ccn(C)n3)cc(OC)c1C2=O [Example 3, (2S,5′R)-7-Chloro-3′,4-dimethoxy-5′-methyl-6-(1-methylpyrazol-3-yl)spiro[benzofuran-2,4′-cyclohex-2-ene]-1′,3-dione] to CCn1ccc(-c2cc(OC)c3c(c2Cl)O[C@]2(C3=O)C(OC)=CC(=O)C[C@H]2C)n1 [Example 4, (2S,5′R)-7-Chloro-6-(1-ethylpyrazol-3-yl)-3′,4-dimethoxy-5′-methyl-spiro[benzofuran-2,4′-cyclohex-2-ene]-1′,3-dione], the inhibition in vivo at 100 mg/kg rises from 65% to 73%.

Going from COC1=CC(=O)C[C@@H](C)[C@]12Oc1c(Cl)c(OCCO)cc(OC)c1C2=O [Example 1, (2S,5′R)-7-Chloro-6-(2-hydroxyethoxy)-3′,4-dimethoxy-5′-methyl-spiro[benzofuran-2,4′-cyclohex-2-ene]-1′,3-dione] to COCCOc1cc(OC)c2c(c1Cl)O[C@]1(C2=O)C(OC)=CC(=O)C[C@H]1C [Example 2, (2S,5′R)-7-Chloro-3′,4-dimethoxy-6-(2-methoxyethoxy)-5′-methyl-spiro[benzofuran-2,4′-cyclohex-2-ene]-1′,3-dione], the inhibition in vivo at 100 mg/kg rises from 62% to 71%.

First: CCOc1cc(-c2nnc([C@H](C)O)o2)c(Cl)c2c1C(=O)[C@@]1(O2)C(OC)=CC(=O)C[C@H]1C [Example 12, (2S,5′R)-7-Chloro-4-ethoxy-6-[5-[(1S)-1-hydroxyethyl]-1,3,4-oxadiazol-2-yl]-3′-methoxy-5′-methyl-spiro[benzofuran-2,4′-cyclohex-2-ene]-1′,3-dione]
Second: COC1=CC(=O)C[C@@H](C)[C@]12Oc1c(Cl)c(-c3nnc([C@H](C)O)o3)cc(OC)c1C2=O [Example 9, (2S,5′R)-7-Chloro-6-[5-[(1S)-1-hydroxyethyl]-1,3,4-oxadiazol-2-yl]-3′,4-dimethoxy-5′-methyl-spiro[benzofuran-2,4′-cyclohex-2-ene]-1′,3-dione]
The inhibition in vivo at 100 mg/kg of the first is lower: 61% for the first, 65% for the second.

Going from COC1=CC(=O)C[C@@H](C)[C@]12Oc1c(Cl)c(-c3nc(C(C)O)no3)cc(OC)c1C2=O (stereo partly drawn) [Example 13, (2S,5′R)-7-Chloro-6-[3-(l-hydroxyethyl)-1,2,4-oxadiazol-5-yl]-3′,4-dimethoxy-5′-methyl-spiro[benzofuran-2,4′-cyclohex-2-ene]-1′,3-dione] to COC1=CC(=O)C[C@@H](C)[C@]12Oc1c(Cl)c(-c3nc(C)no3)cc(OC)c1C2=O [Example 6, (2S,5′R)-7-Chloro-3′,4-dimethoxy-5′-methyl-6-(3-methyl-1,2,4-oxadiazol-5-yl)spiro[benzofuran-2,4′-cyclohex-2-ene]-1′,3-dione], the inhibition in vivo at 100 mg/kg falls from 82% to 55%.

First: COC1=CC(=O)C[C@@H](C)[C@]12Oc1c(Cl)c(-c3nc(C)no3)cc(OCCO)c1C2=O [Example 15, (2S,5′R)-7-Chloro-4-(2-hydroxyethoxy)-3′-methoxy-5′-methyl-6-(3-methyl-1,2,4-oxadiazol-5-yl)spiro[benzofuran-2,4′-cyclohex-2-ene]-1′,3-dione]
Second: COC1=CC(=O)C[C@@H](C)[C@]12Oc1c(Cl)c(-c3noc(C)n3)cc(OCCO)c1C2=O [Example 16, (2S,5′R)-7-Chloro-4-(2-hydroxyethoxy)-3′-methoxy-5′-methyl-6-(5-methyl-1,2,4-oxadiazol-3-yl)spiro[benzofuran-2,4′-cyclohex-2-ene]-1′,3-dione]
The inhibition in vivo at 100 mg/kg of the first is lower: 55% for the first, 62% for the second.

Compared with COC1=CC(=O)C[C@@H](C)[C@]12Oc1c(Cl)c(OC)cc(OC)c1C2=O [Griseofulvin], COC1=CC(=O)C[C@@H](C)[C@]12Oc1c(Cl)c(-c3noc(C)n3)cc(OC)c1C2=O [Example 7, (2S,5′R)-7-Chloro-3′,4-dimethoxy-5′-methyl-6-(5-methyl-1,2,4-oxadiazol-3-yl)spiro[benzofuran-2,4′-cyclohex-2-ene]-1′,3-dione] is higher in inhibition in vivo at 100 mg/kg: 19% for the first, 65% for the second.

COC1=CC(=O)C[C@@H](C)[C@]12Oc1c(Cl)c(-c3nnc([C@@H](C)O)o3)cc(OC)c1C2=O [Example 10, (2S,5′R)-7-Chloro-6-[5-[(1R)-1-hydroxyethyl]-1,3,4-oxadiazol-2-yl]-3′,4-dimethoxy-5′-methyl-spiro[benzofuran-2,4′-cyclohex-2-ene]-1′,3-dione] was tested, and the inhibition in vivo at 100 mg/kg was 58%.
